The source of these data is patent US20160303189A1, “Applications of Recombined Ganoderma Lucidum Immunoregulation Protein in Preparing Drugs for Treating Tissue Fibrosis” (priority 2014, published 2016).

Experiment [1] relates to model rats with liver fibrosis. Nature of the experiment: Effects of rLZ-8 on serum ALT, AST and ALB of CCl4 model rats with liver fibrosis. It is filed as in vivo. The following applies: Group C: glycyrrhizin (Ganlixin) 12.5 mg/kg s.c. once a day. On the procedure: (§1) Experiment grouping: model group, positive drug group and the treatment group were given subcutaneous injection of 50% volume fraction carbon tetrachloride olive oil solution, twice a week, starting 8:00 in the morning on Mondays and Thursdays, lasting for 8 weeks to replicate the cirrhosis model. For the first time the dose was 0.5 ml/100 g in accordance with weights of the mice, then 0.3 ml/100 g every four days in accordance with weights of the mice. They ate and drank water freely. At the same time on Mondays changes in rats' weights were monitored and the possibility of liver failure was preliminary estimated in order to reduce the mortality rated caused by replicating the cirrhosis model.
(§2) Treating process: In the control group (group A), the model group (group B), the positive drug group (glycyrrhizin group C), the low-dose treatment group (group D), the medium-dose treatment group (group E) and the high-dose treatment group (group F), 8 weeks after the cirrhosis models were built, the rats were anesthetized with ether, blood was drawn from retinal venous plexus to test serum liver biochemical indicators; the positive drug group were given subcutaneous injection of Ganlixin solution, the injection volume was 12.5 mg/kg. The process was performed once a day, lasting for 4 weeks; for the low, medium and high rLZ-8 dose groups, the concentration of subcutaneous injections were 15 μg/kg, 30 μg/kg and […] respectively; the injections were given once a day for 4 weeks; till the end of the 12th week, the mice were denied food but not water for 18 hours and anesthetized with ether. The eyeball blood of the rats was drawn, about […] samples of blood were centrifuged to get serum and then were put into a −20° C. deep freezer to be tested for serum biochemical indexes.
In the present experiment, the rats' liver fibrosis models were replicated by CCl4: olive oil (1:1) for 8 weeks. […] Compared with the control group, the difference was obvious and was statistically significant. The effect of medium dose rLZ-8 was the best.

Experiment [2] concerns model rats with liver fibrosis. Briefly: Effects of rLZ-8 on body mass, liver weight and liver indexes of CCl4 model rats with liver fibrosis. It counts as in vivo. The following applies: 4 weeks. On the procedure: as §1, §2
The mark [3] stands for this setting: Group C: glycyrrhizin (Ganlixin solution) 12.5 mg/kg subcutaneous once a day.

As to `CC1(C)[C@@H](O[C@H]2O[C@H](C(=O)O)[C@@H](O)[C@H](O)[C@H]2O[C@@H]2O[C@H](C(=O)O)[C@@H](O)[C@H](O)[C@H]2O)CC[C@]2(C)[C@H]3C(=O)C=C4[C@@H]5C[C@@](C)(C(=O)O)CC[C@]5(C)CC[C@@]4(C)[C@]3(C)CC[C@@H]12` [glycyrrhizin], in experiment [1] (Day 10), the “serum ALB” value was 34.8 ± 0.2 g/L, the “serum ALT” value is given as 143.3 ± 0.9 U/L and the “serum AST” value is reported as 176.2 ± 6.1 U/L. Besides, in experiment [1] (Day 20), the “serum ALB” value was found to be 30.0 ± 0.2 g/L, the “serum ALT” value is given as 126.2 ± 1.3 U/L and the “serum AST” value was 205.8 ± 4.2 U/L. In experiment [1] (Day 30), the “serum ALB” value worked out at 32.5 ± 0.1 g/L, the “serum ALT” value worked out at 49.5 ± 0.6 U/L and the “serum AST” value turned out to be 59.0 ± 1.9 U/L. The compound further returned a Model weight in experiment [2] (Group C: glycyrrhizin (Ganlixin solution) 12.5 mg/kg s.c. once a day, weight after modelling) of 303.5 ± 39.2 g. In experiment [2] (setting [3]), this compound gave a Final weights of 397.1 ± 46.4 g, a Liver indexes of 3.1 ± 0.4% and a Liver weights of 12.43 ± 2.25 g.
